The source of these data is paper PMC12645137 (Current Neuropharmacology, 2025).

The target in data set [1] is T1, BChE (source equine serum) (Equus caballus, UniProt P81908).
T1 construct: from tissue; host or cells: equine serum
As to the kind of experiment: biochemical. As for the experimental part: The cholinesterase inhibitory potentials of our synthesized compounds were evaluated against cholinesterase enzymes (AChE/BChE). The AChE (source Electric eel) and BChE (source equine serum) were used in the study following previously published Ellman's assay. The assay basic principle involves the hydrolytic breakdown of acetylthiocholine iodide (ATChI) by AChE and butyryl thiocholine iodide (BTChI) by BChE enzymes, leading to the formation of an intermediate compound which is subsequently complexed with 5,5-dithio bis nitrobenzoic acid (DTNB) to form a UV-detectable compound. The yellowish color product indicates the hydrolysis of ATChI and BTChI substrates by respective enzymes, which were analyzed at 412 nm using a UV-visible spectrophotometer. […] A test sample of 1000 µl was taken in a cuvette, to which enzyme solution (50 µl) and DTNB reagent of 50 µL were added. The AChE (0.03 U/ml) and BChE (0.01 U/ml) solutions were prepared in 0.1 M phosphate buffer having pH 8.0. The ATChI and BTChI substrate solutions (0.0005 M) and 0.0002273 M solution of DTNB were prepared using distilled water and stored at 8°C before further use. For 15 minutes, the solution mixture was incubated at 30 °C, after which a solution of the substrate (50 µl) was added and then subjected to spectroscopic analysis. Using a double beam spectrophotometer, the sample absorbance was measured for 4 minutes at 412 nm beside the time of reaction. […] All values were taken in triplicate under the same conditions.
Enzymatic activity percentage=V/Vmaxx100
V is the reaction rate in the inhibitor's presence, whereas Vmax is the reaction rate in the absence of the inhibitor.

The subject of a further data set is mice. The experiment in a line: Acute toxicity study. Format: in vivo, albino mice. The settings on record: i.p., doses 25 to 1000 mg/kg. As for the experimental part:
In our study, experimental animals (albino mice male/female weighing 18-32 gm) were obtained from the National Institute of Health (NIH), Islamabad, Pakistan. These animals were provided adequate food, water, and light (ad libitum). Appropriate conditions were maintained as per laboratory specifications, including a temperature of 22°C a dark and light cycle of 12 hours each. As per the Animals Scientific Procedure Act 1986, UK, the in-vivo studies were performed on experimental animals from 9:00 am to 4:00 pm. The departmental committee of research ethics of the Pharmacy Department, University of Malakand, approved the study protocol via reference no DREC/20210622/50.
Acute toxicity was carried out for the safety profile assessment of our test compounds. For this purpose, the mice were grouped into six different groups (n = 6). The test compound was given to each mouse at different doses (25 to 1000 mg/kg) via the intraperitoneal (i.p) route. Changes in behaviour such as convulsions, hyperactivity, writhing, sedation, righting reflex, aggressiveness, grooming, ataxia, motor activity (increased or decreased), respiratory arrest, and mortality were observed after the administration of sample solution for the first two hours and then again for 24 hours.

Data set [2] relates to scopolamine-induced amnesic mice. As to the kind of experiment: Elevated Plus Maze (EPM) test in scopolamine-induced amnesic animals. The settings on record: scopolamine 1 mg/kg amnesic mice, i.p., AN-1 10 mg/kg, progesterone 10 mg/kg, galantamine 8 mg/kg. The data set is classed as in vivo, albino mice. As for the experimental part: (§1) The mice were divided into the following five groups, and each group had six animals. The standard drug and test samples were carefully administered to the mice via the intraperitoneal route.
(§2) Group IV (Progesterone treated group) = Animals treated with 10 mg/kg progesterone and scopolamine 1 mg/kg.
(§3) Group V (Test compound group) = Animals received 10 mg/kg progesterone derivative (AN-1) and 1 mg/kg scopolamine.
The EPM behavioral test was performed to assess the learning abilities and long-term spatial memory of the experimental animals. The EPM apparatus has the appearance of a plus sign which was 50 cm elevated from the ground. The apparatus has two open arms (50 cm long and 10 cm wide), and two closed arms having dimensions of 20, 50, and 10 cm in height, length, and width, respectively. The open and closed arms were joined with a 10 × 10 central square.
After 30 minutes of the intraperitoneal drug administration on the seventh day of treatment, mice of each group were placed over the open arm end of the EPM apparatus in such a way that their faces were away from the midpoint of the apparatus. Transfer latency (TL) is the time a mouse takes to enter the closed arm entirely with all its legs from the open arm of the apparatus. The time of initial transfer latency (ITL) was observed, and then the animals were allowed freely for 1.5 minutes to search the EPM apparatus.
After twenty-four hours of the training period, test trials were conducted to determine the retention of tasks that were learnt during training. Retention transfer latency (RTL) was measured by placing the experimental mice at the open end of the apparatus, ensuring that they faced away from its midpoint. The mouse was allowed to enter the closed arm entirely with all its legs. A decline in TL compared to ITL indicated an improvement in memory.

For data set [3] the test system is unchanged. The experiment in a line: Y-Maze test in scopolamine-induced amnesic animals. The data set is classed as in vivo, albino mice. To be noted: scopolamine 1 mg/kg amnesic mice, i.p., AN-1 10 mg/kg, progesterone 10 mg/kg, galantamine 8 mg/kg, disease group 22.27%. Here is the method: as §1, §2, §3
To determine the effect of synthesized compounds on short-term learning and memory of experimental mice, a Y-Maze test was used. The Y-Maze apparatus consists of three arms that are fixed at 120° angle from each other and have 30 cm length, 20 cm height, and 8 cm width dimensions. After 30 minutes of giving test compounds intraperitoneally, the mouse was positioned at the arm end in such a way that it faced away from the midpoint of the apparatus and was permitted to search the apparatus for five minutes freely. The arm entry sequence and number by each mouse were recorded for 5 minutes using a digital camera. Alternation is defined as the successive entry into 3 dissimilar arms by a mouse (i.e., CBA, BCA, ABC). When the back paws of a mouse were found inside an arm wholly, the arm entry was considered completed. Seventy percent v/v ethanol was used for cleaning the apparatus and to avoid smell cues. The spontaneous alternation performance (SAP) percentage was calculated using the following formula [37]:
% alternation = [(alternations number) / (total arm entries number – 2)] × 100

The test system is the same in data set [4]. As to the kind of experiment: Open field test (OFT) in scopolamine-induced amnesic animals. The data set is classed as in vivo, albino mice. The settings on record: i.p., AN-1 10 mg/kg, progesterone 10 mg/kg, galantamine 8 mg/kg. Here is the method: as §1, §2, §3
Open field behavioral test was carried out for the assessment of locomotor activities like the number of line crossing. The apparatus was made from plywood having 81×81×28.5 cm dimensions. Sixteen squares (20×20 cm) were made on the base of the apparatus by drawing four horizontal and four vertical lines. […] Furthermore, exploration time spent by mice in central and peripheral areas of the apparatus was also recorded by allowing the mice for 30 minutes to explore the apparatus.

T1 sequence (P81908 whole entry): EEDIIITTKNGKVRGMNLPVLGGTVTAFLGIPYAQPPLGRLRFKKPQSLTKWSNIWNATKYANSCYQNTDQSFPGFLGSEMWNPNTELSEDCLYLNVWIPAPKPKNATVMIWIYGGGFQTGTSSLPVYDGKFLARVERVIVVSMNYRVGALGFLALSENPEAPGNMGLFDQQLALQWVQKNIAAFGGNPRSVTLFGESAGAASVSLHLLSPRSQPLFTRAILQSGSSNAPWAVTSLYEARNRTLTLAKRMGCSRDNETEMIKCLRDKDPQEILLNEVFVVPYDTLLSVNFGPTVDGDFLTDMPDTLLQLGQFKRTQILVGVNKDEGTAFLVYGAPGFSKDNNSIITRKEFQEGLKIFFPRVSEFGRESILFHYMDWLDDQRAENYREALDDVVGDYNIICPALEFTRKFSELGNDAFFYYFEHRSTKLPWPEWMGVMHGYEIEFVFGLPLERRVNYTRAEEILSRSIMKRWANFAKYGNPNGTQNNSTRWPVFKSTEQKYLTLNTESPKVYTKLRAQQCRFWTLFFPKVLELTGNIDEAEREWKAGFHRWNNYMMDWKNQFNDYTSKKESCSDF

By IC50 is commonly meant the point on the concentration scale where inhibition reaches its midpoint. Higher therefore signals a need for much substance. The term inhibition denotes the relative decrease from the control value, in per cent. Turning to `COc1ccc(C/N=C(/C)[C@H]2CC[C@H]3[C@@H]4CCC5=CC(=O)CC[C@]5(C)[C@H]4CC[C@]23C)cc1` [AN1, (8S,9S,10R,13S,14S)-17-((Z)-1-((4-methoxybenzyl)imino)ethyl)-10,13-dimethyl-1,2,6,7,8,9,10,11,12,13,14,15,16,17-tetradecahydro-3H-cyc-lopenta[a]phenanthren-3-one], the IC50 in data set [1] came to 43.3 µM. Besides, in data set [1] (read-out: % BChE Inhibition), the inhibition at 62.5 µg/mL was 61.5%, the inhibition at 125 µg/mL is 68.3%, the inhibition at 250 µg/mL was 71.9% and the inhibition at 500 µg/mL was 80.4%. The inhibition at 1000 µg/mL in data set [1] (read-out: % BChE Inhibition) came out at 86.8 ± 1.24%. Moreover, the “toxic dose (mortality observed)” value with mice was at least 1000 mg/kg. For the same molecule, the “dose safe, without toxic effects, mortality or unusual behavioral response” value with mice (observed 2 h and 24 h) is reported as at most 500 mg/kg. Further, the “retention transfer latency (RTL)” value in data set [2] (24 h after training, disease group 67 sec) turned out to be 45.33 s. In addition, in data set [2] (disease group 73 sec), the “initial transfer latency (ITL)” value was determined as 50.16 s. The molecule further had a spontaneous alternation in data set [3] of 42.72 ± 9.41%. The molecule further displayed a spontaneous alternation in data set [3] (listed as AN-1) of 42.72%. Further, the “number of lines crossed” value in data set [4] (5 min, scopolamine 1 mg/kg amnesic mice, disease group 26.33) is 43.66. The “time spent in the central area” value in data set [4] (30 min exploration, scopolamine 1 mg/kg amnesic mice, disease group 4.66) was determined as 10.33 mint. Further, in data set [4] (versus scopolamine/disease group), the “time spent in the peripheral area” value is reported as “significantly (p<0.01) less time in the peripheral area”.
